Data taken from patent US10815444B2, “Use of specific derivatives of quaternized nitrogen compounds as additives in fuels and lubricants” (BASF SE, priority 2013, dated 2020).

Tests used:
[1] = Experimental: The partition coefficient is determined by means of various methods according to the value.
[2] = Storage stability of formulations at −20° C.; format: physicochemical
Experimental: The following formulations were tested for storage stability at −20° C.: […]
a) 1:5 Dilution in Solvent Naphtha (5 Parts):
b) 1:5:1 Dilution in 2-Ethylhexyl Nitrate (5 Parts) and Solvent Naphtha (1 Part)

[3] = Motor oil compatibility to standard DGMK 531 1-A (filtration time); conditions: for filtration time: 10 g additive + 10 g motor oil, 90° C. three days, 500 ml EN590 B7 diesel, 0.8 μm membrane filter, 200 mbar; for filterability / motor oil compatibility pass/fail: DGMK 531 1-A
Experimental: Determination to standard DGMK 531 1-A with EN590 B7 fuel from Aral, unadditized, and Wintershall Multi-Rekord Top 15W-40 motor oil.
10 g in each case of motor oil and 10 g of the additive to be tested are weighed into a 500 ml Erlenmeyer flask and homogenized. The flask containing the mixture is loosely sealed with a glass stopper and conditioned in a drying cabinet at a temperature of 90±3° C. for three days. After the conditioning, the sample is cooled in a fume hood at room temperature for one hour. The mixture is then made up with 500 ml of diesel fuel and mixed thoroughly. A membrane filter of diameter 50 mm and pore size 0.8 μm is inserted into the filtration apparatus. Mixture is filtered through the membrane filter with the aid of a reduced pressure of 200 mbar. The filtration time is measured.

[4] = XUD9 engine test (keep clean), flow restriction, CEC F-23-01; conditions: 0.1 mm needle stroke, Aral EN590 B7 fuel
Description: 1. XUD9 Test—Determination of Flow Restriction
The procedure was according to the standard provisions of CEC F-23-01.
Test according to above procedure CEC F-23-01 in Peugeot XUD9 engine.

[5] = DW10 Zn engine test (clean-up), engine power; conditions: 25 mg/kg active compound
Experimental: 2.2. DW10 Dirty-Up Clean-Up (DU-CU)
The DU-CU test is based on CEC test procedure F-098-08 Issue 5. The procedure is described in Issue 5 of the test procedure (CEC F-98-08). This is done using the same test setup and the PEUGEOT DW10 engine type.
The DU-CU test consists of two individual tests which are run in succession. The first test serves to form deposits (DU), the second to remove the deposits (CU). After the DU, the power loss is determined. After the end of the DU run, the engine is not operated for at least 8 hours and is cooled to ambient temperature. Thereafter, the CU fuel is used to start the CU without deinstalling and cleaning the injectors. The deposits and power loss ideally decline over the course of the CU test.
The initial power P0,cu [kW] is calculated from the measured torque at full load 4000/min directly after the test has started and the engine has run hot in the CU. The procedure is likewise described in Issue 5 of the test procedure.
The final power (Pend,cu) is determined in the 12th cycle in stage 12 (see table, FIG. 2). Here too, the operation point is full load 4000/min. Pend,cu [kW] is calculated from the torque measured.
The test was conducted with a Peugeot DW10 engine, which is used in CEC F-98-08 procedure, except that more severe conditions were used in the dirty-up part:
I. Dirty-up: the more severe conditions allow distinctly faster formation of injector deposits than under standard CEC F-98-08 conditions: The engine was operated at full load (4000 rpm) with EN590 B7 Aral, unadditized, containing 3 mg/kg Zn, for 4 h.

[6] = DW10 Na soap IDID test (clean-up), exhaust gas temperatures on cold start; conditions: CU, 70 mg/kg active compound
Experimental: 3. IDID Test—Determination of Additive Effect on Internal Injector Deposits
The formation of deposits within the injector was characterized by the deviations in the exhaust gas temperatures of the cylinders at the cylinder outlet on cold starting of the DW10 engine.
To promote the formation of deposits, 1 mg/l of sodium salt of an organic acid, 20 mg/l of dodecenylsuccinic acid and 10 mg/l of water were added to the fuel.
The test is conducted as a dirty-up clean-up test (DU-CU).
Thereafter, the CU fuel is used to start the CU without deinstalling and cleaning the injectors. After the CU run over 8 h, after a rest phase of at least eight hours, a cold start of the engine is conducted, followed by idling for 10 minutes. The evaluation is effected by the comparison of the temperature profiles for the individual cylinders after the cold start in the DU and CU runs.
The IDID test indicates the formation of internal deposits in the injector. The characteristic used in this test is the exhaust gas temperature of the individual cylinders. In an injector system without IDIDs, the exhaust gas temperatures of the cylinders increase homogeneously.
The temperature sensors are beyond the cylinder head outlet in the exhaust gas manifold. Significant deviation of the individual cylinder temperatures (e.g. >20° C.) indicates the presence of internal injector deposits (IDIDs).
The tests (DU and CU) are each conducted with run time 8 h. The one-hour test cycle from CEC F-098-08 (see FIG. 1) is run through 8 times in each case. In the event of deviations of the individual cylinder temperatures of greater than 45° C. from the mean for all 4 cylinders, the test is stopped early.
To examine the influence of the additives on the performance of direct injection diesel engines, as a further test method, the IDID engine test was conducted, in which the exhaust gas temperatures in the cylinders at the cylinder outlet were determined on cold starting of the DW10 engine. (cf. method description above)
A DW10 direct injection diesel engine with common rail system from the manufacturer Peugeot was used, which was employed in the CEC F-098-08 test method. The method that was used derived from CEC F-098-08, with the difference that, rather than 1 ppm of Zn for artificial inducement of formation of deposits, 1 ppm by weight of sodium naphthenate and 20 ppm by weight of dodecenylsuccinic acid were used in each case. The fuel used was a commercial B7 diesel fuel according to EN 590 from Aral. The test duration is shortened to 8 hours compared to method CEC F-098-08. After respective DU and CU phases, the engine is cooled and then started at idling speed.
II. CU (clean-up) After the DU phase, the engine is operated with additized fuel without cleaning the injectors beforehand.
Again, the exhaust gas temperatures of the 4 cylinders (“C1” to “C4”) were measured at each of the cylinder outlets after 0 minutes (“ϑ0”) and after 5 minutes (“ϑ5”). The results of the exhaust gas temperature measurements with average values (“Δ”) and the greatest differences from Δ in the downward (“−”) and upward (“+”) directions for the two test runs are summarized in the following overview: […]

[7] = DW10 Na power-loss test (keep-clean); conditions: 8 h, 1 ppm Na + 20 ppm dodecenylsuccinic acid and 150 ppm additive
Experimental: To examine the efficacy of the inventive compounds against power loss caused by metals such as Na, K and others (and not by Zn as described above), an IDID engine test was used. During the run, the power is measured to CEC F-098-08.

[8] = 1:5:1 dilution in 2-ethylhexyl nitrate (5 parts) and Solvent Naphtha (1 part)
[9] = 1:5 dilution in Solvent Naphtha (5 parts)

In the case of CCCCCO [pentanol], the “partition coefficient log Pow” value [1] is reported as 1.3.
For CCCCC(CC)CO (stereo not drawn) [2-ethylhexanol], the “partition coefficient log Pow” value [1] was 2.9.
With “C12/14-NMe3-2-Propylheptyl Oxalate [Inventive example 1]” the storage stability observation [2, 8] was “clear liquid after 14 days”, the storage stability observation [2, 9] was “clear liquid after 60 days” and the filtration time [3] was 114 s. The filterability [3] was “good filterability”, the “motor oil compatibility pass/fail” value [3] was “pass” and the Flow restriction ([4]; dosage 24 mg/kg) was 46.6%. For the same compound, the Flow restriction ([4]; dosage 36 mg/kg) was 14.5%, the Flow restriction ([4]; dosage 48 mg/kg) was 4.5% and the “Engine power on commencement of clean-up test” value ([5]; 1 ppm Zn in EN590 B7, after dirty-up) was 90.2 kW. For the same compound, the “Engine power after engine running for 3 h” value ([5]; 1 ppm Zn in EN590 B7, clean-up) was 97.7 kW, the “Engine power until the end of the clean-up test” value ([5]; 1 ppm Zn in EN590 B7, clean-up lasting 8 h) was 97.7 kW and the “average exhaust gas temperature (Δ)” value [6] was 77 °C. For the same compound, the “evaluation of IDID clean-up” value [6] was “the IDIDs formed were removed”, the “greatest difference from Δ in the downward direction” value [6] was −8 °C and the “greatest difference from Δ in the upward direction” value [6] was “+5 °C”. The “exhaust gas temperature cylinder C1” value ([6]; after 0 minutes (ϑ0)) was “C1: 28 °C”, the “exhaust gas temperature cylinder C2” value ([6]; after 0 minutes (ϑ0)) was “C2: 27 °C” and the “exhaust gas temperature cylinder C3” value ([6]; after 0 minutes (ϑ0)) was “C3: 27 °C”. For the same compound, the “exhaust gas temperature cylinder C4” value ([6]; after 0 minutes (ϑ0)) was “C4: 26 °C”, the “exhaust gas temperature cylinder C1” value ([6]; after 5 minutes (ϑ5)) was “C1: 78 °C” and the “exhaust gas temperature cylinder C2” value ([6]; after 5 minutes (ϑ5)) was “C2: 82 °C”. For the same compound, the “exhaust gas temperature cylinder C3” value ([6]; after 5 minutes (ϑ5)) was “C3: 77 °C”, the “exhaust gas temperature cylinder C4” value ([6]; after 5 minutes (ϑ5)) was “C4: 69 °C” and the “Change in power in the test” value [7] was “+0.2%”. For the same compound, the “Engine power after the test” value [7] was 96.6 kW and the “Engine power before the test” value [7] was 96.4 kW.
With “C12/14-NMe3-Methyl Oxalate [Comparative example 1, reference compound]” the storage stability observation [2, 8] was “solidification after 1 day”, the storage stability observation [2, 9] was “solidification after 44 days” and the filtration time [3] was > 300 s. The filterability [3] was “very poor filterability” and the “motor oil compatibility pass/fail” value [3] was “fail”.
